# From publication PMC5498548
# Values joined by “and” are separate entries in the source; they are usually repeats but may differ in a detail not shown here. Identical values can stand only once. “Also recorded” adds a separate entry of the source. Counter-ions that a name gives are not always drawn. Like-named read-outs stand apart in the source and are kept apart here.
# T1: IdeR (Mycobacterium tuberculosis, UniProt P9WMH1 1-230)
# T1 sequence: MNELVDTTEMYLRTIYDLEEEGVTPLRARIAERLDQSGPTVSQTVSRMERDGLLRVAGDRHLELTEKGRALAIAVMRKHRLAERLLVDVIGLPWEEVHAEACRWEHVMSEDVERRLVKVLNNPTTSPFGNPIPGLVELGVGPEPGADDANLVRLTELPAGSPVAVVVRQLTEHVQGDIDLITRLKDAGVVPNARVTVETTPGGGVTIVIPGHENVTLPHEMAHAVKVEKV
# B1: mbtA-mbtB intergenic IdeR binding region oligo (dsDNA)
# DNA 1: CCCTGTTAGCACAGGCTGCCCTAATTTTAGTG
# DNA 2: CACTAAAATTAGGGCAGCCTGTGCTAACAGGG
# Assays:
# IdeR [1] = target: T2, IdeR (Mycobacterium tuberculosis, UniProt P9WMH1); assay: biochemical; details: EMSA
# IdeR [2] = target: T2, IdeR; assay: EMSA competition experiments with increasing labeled DNA; type: biochemical; details: DNA 0.8 pmoles to 12.8 pmoles
# IdeR [3] = target: T2, IdeR; assay: EMSA with Fe2+ instead of Ni2+: effect of iron on inhibition; type: biochemical; details: 100 µM Fe2+, 100 µg/ml compound
# M. tuberculosis = assay: Resazurin microtiter assay (REMA) whole cell MIC90 in broth culture; type: cell-based, Mycobacterium tuberculosis; details: MB7H9 medium, Mean ± S.E., three experiments; for MIC90: Mycobacterium tuberculosis, read-out: MIC90 of compounds against M. tuberculosis
# [4] = system: THP-1 (human monocytic macrophage cell line); assay: Cytotoxicity by REMA in THP-1; type: cell-based; details: for IC50: Homo sapiens, THP-1, 1-200 µg/ml, read-out: Inhibition in THP1 (IC50 in µg/ml)
# Method: (§1) The cytotoxicity of the compounds was determined by employing REMA using various mammalian cell lines such as THP-1 (human monocytic macrophage cell line), HEK (Human Embryonic Kidney cell line), MDCK (Madine darby canine kidney cell line) and HepG2 (Human hepatocellular carcinoma cell line). 1 × 10^4 cells/well were employed in a sterilized 96-well plate containing serial dilutions of compounds ranging from 1 µg/ml to 200 µg/ml concentration, in their respective media (RPMI for THP-1, DMEM for HEK and HepG2 and MEM for MDCK) with 10% fetal bovine serum and Antibiotic-Antimycotic mix (Invitrogen Corporation, Carlsbad, California, USA). IC50 is defined as the concentration of the compound that causes 50% reduction in the fluorescence intensity indicating 50% viable cells. IC50 values were determined from the results of at least two independent tests and Mean ± S.E.M was calculated from the inhibition curve using GraphPad Prism 5.
# [5] = system: HEK (Human Embryonic Kidney cell line); assay: Cytotoxicity by REMA in HEK; type: cell-based; details: Homo sapiens, 1-200 µg/ml, read-out: Inhibition in HEK (IC50 in µg/ml)
# Method: as §1
# [6] = system: MDCK (Madine darby canine kidney cell line); assay: Cytotoxicity by REMA in MDCK; type: cell-based; details: Canis lupus familiaris, MDCK, 1-200 µg/ml, read-out: Inhibition in MDCK (IC50 in µg/ml)
# Method: as §1
# [7] = system: HepG2 (Human hepatocellular carcinoma cell line); assay: Cytotoxicity by REMA in HepG2; type: cell-based; details: Homo sapiens, HepG2, 1-200 µg/ml, read-out: Inhibition in HepG2 (IC50 in µg/ml)
# Method: as §1
# [8] = system: intracellular M. tuberculosis H37Rv; assay: Inhibition of intracellular M. tuberculosis in PMA activated THP-1 cells, spotting on agar plates; type: cell-based, Mycobacterium tuberculosis
# IdeR [9] = target: T1, IdeR; assay: EMSA; details: protein: recombinant; tags: vector pET28c NdeI/HindIII (His-tag, Ni-NTA purified); C-terminal streptactin tag from reverse primer; chain copies: 4; label: Cy5 at 5' end of both strands; blunt (only sense strand printed)
# [10] = 0.35 µg IdeR, 0.8 picomoles labeled DNA, 200 µM NiSO4, inhibitor 0.4-100 µg/ml, read-out: IC50 (µg/ml) (converted)
# [11] = same values given in µM, read-out: IC50
# [12] = at 500 μg/ml (highest concentration tested), infected THP-1, 5 days
# [13] = at concentrations lower than 500 μg/ml (100 to 400 μg/ml), infected THP-1
Molecule,IC50 (IdeR [1]; [10]),IC50 (IdeR [1]; [11]) [µM],mode of inhibition in competition with DNA (IdeR [2]),effect of iron on the inhibitory potential (IdeR [3]),MIC90 of compounds against M. tuberculosis (M. tuberculosis),MIC90 (M. tuberculosis) [µg/mL],Inhibition in THP1 (IC50 in µg/ml) ([4]; 1-200 µg/ml),IC50 [4] [µg/mL],IC50 [5] [µg/mL],IC50 [6] [µg/mL],IC50 [7] [µg/mL],"growth of intracellular M. tuberculosis on agar plates ([8]; at 150 μg/ml and 125 μg/ml, infected THP-1, 5 days)","growth of intracellular M. tuberculosis on agar plates ([8]; at lower concentrations (100 to 25 μg/ml), infected THP-1, 5 days)","growth of intracellular M. tuberculosis on agar plates [8, 12]","growth of intracellular M. tuberculosis on agar plates [8, 13]",binding result (IdeR [9])
"O=S(=O)(O)c1ccc(O)c(N=Nc2c(O)ccc3ccccc23)c1 [Compound I-42, Benzene sulfonic acid,4-hydroxy-3-[(2-hydroxy-1-naphthalenyl)azo]-monosodium salt]",≤ 72.6 µM and 2.9 µM,2.72,competing with DNA,no effect,,,,,,,,,,,,
"Cc1ccc(S(=O)(=O)C2CC(=O)N(c3ccc(F)c(Cl)c3)C2=O)cc1 (stereo not drawn) [Compound I-108, 1-(3-chloro-4-fluorophenyl)-3-[(4-methylphenyl)sulfonyl]pyrrolidine-2,5-dione]",62.9 µM and 63.6 µM,63.6,,,17.5 ± 3.06 µg/mL,17.5,slight toxicity,168 ± 5.6,> 200,> 200,> 200,only a few pin pointed colonies; also recorded: pin point colonies; also recorded: able to limit the growth of intracellular bacteria,prominent growth of bacilli,,,
"O=C(O)C1(Cc2ccc(O)c(O)c2)NCCS1 (stereo not drawn) [Compound I-20, 2-(3,4-dihydroxybenzyl)-1,3-thiazolidine-2-carboxylic acid]",9.56 µM,9.56,competing with DNA,no effect,,,,,,,,,,,,
"Cc1ccc(C2=Nc3c(c(C)nn3-c3ccccc3)N=C(C(=O)O)C2)cc1 [Compound I-34, 3-methyl-7-(4-methylphenyl)-1-phenyl-1,6-dihydropyrazolo[3,4-b][1,4]diazepine-5-carboxylic acid]",≤ 69.8 µM and 17 µM and 16.7 µM,17,competing with DNA,no effect,86 µg/mL and 86.6 ± 7.8 µg/mL,86.6,,> 200,> 200,> 200,> 200,,,negligible inhibition; also recorded: unable to limit the growth of intracellular bacteria,unaffected,
"Cc1nn(-c2ccccc2)c2c1N=C(C(=O)O)CC(c1ccccc1)=N2 [Compound I-33, 3-methyl-1,7-diphenyl-1,6-dihydropyrazolo[3,4-b][1,4]diazepine-5-carboxylic acid]",63 µM and 63.1 µM,63,,,93 µg/mL and 93.3 ± 8.16 µg/mL,93.3,,> 200,> 200,> 200,> 200,,,negligible inhibition,unaffected,
B1,,,,,,,,,,,,,,,,binds
